In patent publication US8945627B2, “Micelles for the solubilization of gossypol” (priority 2011, dated 2015):
Where “and” joins values, the source holds several entries; their conditions need not be identical. Equal values may be shown once. Read-outs that look alike come from different tables or passages of the source. Each block holds one compound with its values, some of them ahead of it.

Experiments:
[1] = neutral pH; cited from earlier work
[2] = system: ES-2 ovarian monolayer cells; assay: cells; format: cell-based
[3] = 200 mg polymer
Procedure: (§2) Supernatant was collected and drug contents were analyzed by RP-HPLC analysis.

[4] = PEG-b-PCL micelle stability tests (drug quantification)
Procedure: as §2

[5] = format: physicochemical
Procedure: Acetone was evaporated from the aqueous micelle solution under reduced pressure using a rotatory evaporator at 60° C. The thin film of “polymer plus drug mixture” was reconstituted with 1 mL of 0.9% saline at 60° C.
(§1) Samples for RP-HPLC were prepared by adding acetonitrile (ACN) into each micelle to break it apart and quantify drugs dissolved in ACN.

[6] = format: physicochemical; remark: listed apart in the source
Procedure: Acetone was evaporated from the aqueous micelle solution under reduced pressure using a rotatory evaporator at 60° C.
as §1

[7] = system: ES-2 ovarian multicellular spheroids; assay: cells; format: cell-based; details: read-out: IC50 values (nM), Spheroids (BLI)
Procedure: Surviving cells after treatment were quantified by scanning bioluminescence of luc-ES-2 cells (IVIS optical imaging system).
The images of FIG. 7 were collected using an inverted light microscope on spheroids treated with PEG5k-b-PCL10k micelles representing 1000 nM of total drug concentration. In advance, to obtain luciferase-expressing ES-2 cells, ES-2 cells were transfected with pGL4 with neomycin resistance using Lipofectamine 2,000.
Bioluminescence of surviving cells was quantified and IC50 value was calculated by using Compusyn.

A549 NSCLC Cells = assay: In vitro cytotoxicity, resazurin cell viability assay; format: cell-based; details: Homo sapiens
Procedure: Cytotoxicity was determined using a resazurin cell viability assay. A549 cells were cultured in RPMI1640, supplemented with 10% FBS, 100 IU/mL penicillin, 100 μg/mL streptomycin, and 2 mM of L-glutamine. The cells were incubated at 37° C., 5% CO2 atmosphere. Exponentially grown cells were detached from the T-flask by adding a Trypsin-EDTA solution.
Each drug was dissolved at 10 mM as a stock solution using dimethyl sulfoxide (DMSO). […] The stock solution was diluted with cell culture media and the final concentration of DMSO was less than 0.1%. […] The fraction of viable cells were determined using a Cell titer Blue® dye assay (Promega, USA) by monitoring using fluorescence at 590 nm (emission). The inhibitory drug concentration (IC50) was determined by the median-effect equation using compusyn software (Combosyn Inc., US). The determination of IC50 was performed in three independent experiments.
The half maximal inhibitory drug concentration (IC50) was determined by the median-effect equation:
[formula] using CompuSyn software (Version 1.0, ComboSyn Inc., US). In the median-effect equation, fa is the fraction of affected cells; D is drug concentration; and m is the Hill slope or kinetic order.

[8] = Stability of the poloxamer micelle solution, 24 hours at ambient temperature; details: Pluronic F68 micelles, gossypol + paclitaxel
Procedure: The drugs remaining in the solution were quantified by RP-HPLC described above. The micelle solution was centrifuged at 13,000 rpm for 5 minutes and was then filtered with a 0.45 μm nylon filter to remove any drug aggregates in the micelle solution. The concentration of each drug was compared with that of each drug at initial preparation to estimate the stability of micelle solution.

[9] = singly-loaded poloxamer 188 micelles
[10] = PTX/CYP/GSP poloxamer 188 micelles
[11] = 1-in-1 PEG5k-b-PCL10k micelles, 200 mg polymer
[12] = 1-in-1 micelles, 10× decreased drug loading
[13] = 2-in-1 CYP + GSP micelles, 200 mg polymer
[14] = 2-in-1 CYP + GSP micelles, 10× decreased drug loading
[15] = 2-in-1 PTX + CYP micelles, 200 mg polymer
[16] = 2-in-1 PTX + CYP micelles, 10× decreased drug loading
[17] = 3-in-1 PTX + CYP + GSP micelles, 200 mg polymer
[18] = 3-in-1 PTX + CYP + GSP micelles, 10× decreased drug loading
[19] = polymer 10 mg/ml, CYP + GSP micelles
[20] = polymer 10 mg/ml, PTX + CYP + GSP micelles
[21] = polymer 10 mg/ml, PTX + CYP micelles
[22] = polymer 10 mg/ml, single drug micelles
[23] = polymer 20 mg/ml, PTX + CYP + GSP micelles
[24] = polymer 100 mg/ml, PTX + CYP + GSP micelles
[25] = polymer 200 mg/ml, CYP + GSP micelles
[26] = polymer 200 mg/ml, PTX + CYP + GSP micelles
[27] = polymer 200 mg/ml, PTX + CYP micelles
[28] = PEG5k-b-PCL10k micelles, Celltiter Blue readout, read-out: IC50 values (nM), Monolayer (Celltiter Blue)
[29] = PEG5k-b-PCL10k micelles, bioluminescence readout, read-out: IC50 values (nM), Monolayer (BLI)
[30] = 2-in-1 PTX + GSP micelles, 200 mg polymer
[31] = 2-in-1 PTX + GSP micelles, 10× decreased drug loading
[32] = PEG5k-b-PCL10k micelles, bioluminescence readout

drug level in water [9]: 210 µg/mL
Compound: C=CCNC1=C2C[C@@H](C)C[C@H](OC)[C@H](O)[C@@H](C)/C=C(\C)[C@H](OC(N)=O)[C@@H](OC)/C=C\C=C(/C)C(=O)NC(=CC1=O)C2=O [17-AAG, 17-allylamino-17-demethoxygeldanamycin]
water solubility [1]: about 0.1 mg/mL

Compound: CC1=C2C[C@H]3[C@@H](CC=C4C[C@@H](O)CC[C@@]43C)[C@@H]2CC[C@]12O[C@@H]1C[C@H](C)CN[C@H]1[C@H]2C [CYP, 11-deoxojervine]
IC50 ([2]; read-out: IC50 values (nM), Monolayer (BLI)): 240 nM
IC50 ([2]; read-out: IC50 values (nM), Monolayer (Celltiter Blue)): 245 nM
% Remaining Day 0 ([3]; CYP/GSP poloxamer 188 micelles): 100 ± 7.4%
% Remaining Day 1 ([3]; CYP/GSP poloxamer 188 micelles): 106.9 ± 3.4%
% Remaining Day 0 [3, 10]: 100 ± 4.9%
% Remaining Day 1 [3, 10]: 101.2 ± 2.3%
% Remaining Day 0 [4, 11]: 100 ± 10.6%
% Remaining Day 1 [4, 11]: 96.3 ± 5.0%
% Remaining Day 0 [4, 12]: 100 ± 7.9%
% Remaining Day 1 [4, 12]: 96.0 ± 4.4%
% Remaining Day 0 [4, 13]: 100 ± 8.2%
% Remaining Day 1 [4, 13]: 91.0 ± 5.3%
% Remaining Day 0 [4, 14]: 100 ± 5.9%
% Remaining Day 1 [4, 14]: 96.5 ± 4.4%
% Remaining Day 0 [4, 15]: 100 ± 11.3%
% Remaining Day 1 [4, 15]: 97.4 ± 5.7%
% Remaining Day 0 [4, 16]: 100 ± 5.5%
% Remaining Day 1 [4, 16]: 94.3 ± 5.3%
% Remaining Day 0 [4, 17]: 100 ± 6.1%
% Remaining Day 1 [4, 17]: 36.8 ± 1.5%
% Remaining Day 0 [4, 18]: 100 ± 4.2%
% Remaining Day 1 [4, 18]: 87.7 ± 2.6%
drug loaded [5, 19]: 0.16 ± 0.04 mg/mL
drug loaded [5, 20]: 0.21 ± 0.07 mg/mL
drug loaded [5, 21]: 0.03 ± 0.001 mg/mL
drug loaded [5, 22]: 0.012 ± 0.002 mg/mL
drug loaded [5, 23]: 0.27 ± 0.07 mg/mL
drug loaded [5, 24]: 3.55 ± 0.18 mg/mL
drug loaded [5, 25]: 3.5 ± 0.3 mg/mL
drug loaded [5, 26]: 5.1 mg/mL and 5.09 ± 0.29 mg/mL
drug loaded [5, 27]: 0.08 ± 0.02 mg/mL
drug loaded [6, 19]: 1.50 ± 0.50 mg/mL
drug loaded [6, 20]: 1.03 ± 0.02 mg/mL
drug loaded [6, 21]: 0.14 ± 0.06 mg/mL
drug loaded [6, 22]: 0.05 ± 0.03 mg/mL
drug loaded [6, 23]: 1.25 ± 0.11 mg/mL
drug loaded [6, 24]: 4.47 ± 0.38 mg/mL
drug loaded [6, 25]: 3.23 ± 0.99 mg/mL
drug loaded [6, 26]: 6.2 mg/mL and 6.20 ± 0.49 mg/mL
drug loaded [6, 27]: 0.89 ± 0.03 mg/mL
IC50 [7]: 64.8 nM

Compound: Cc1cc2c(C(C)C)c(O)c(O)c(C=O)c2c(O)c1-c1c(C)cc2c(C(C)C)c(O)c(O)c(C=O)c2c1O [Gossypol, gossypol]
IC50 [2, 28]: > 100000 nM
IC50 [2, 29]: > 100000 nM
drug level in water (2-in-1 poloxamer 188 micelles, gossypol + 17-AAG): 5180 ± 470 µg/mL
drug level in water (2-in-1 poloxamer 188 micelles, gossypol + paclitaxel): 4650 ± 620 µg/mL
drug level in water (2-in-1 poloxamer 188 micelles, gossypol + paclitaxel, listed as gossypol): 4650 µg/mL
drug level in water [9]: 5410 ± 140 µg/mL
IC50 (A549 NSCLC Cells; A549, 72 h): 6500 ± 3400 nM
% Remaining Day 0 [4, 11]: 100 ± 4.7%
% Remaining Day 1 [4, 11]: 89.4 ± 3.3%
% Remaining Day 0 [4, 12]: 100 ± 5.6%
% Remaining Day 1 [4, 12]: 98.3 ± 3.6%
% Remaining Day 0 [4, 13]: 100 ± 4.9%
% Remaining Day 1 [4, 13]: 89.8 ± 3.7%
% Remaining Day 0 [4, 14]: 100 ± 4.1%
% Remaining Day 1 [4, 14]: 95.4 ± 3.6%
% Remaining Day 0 [4, 30]: 100 ± 4.4%
% Remaining Day 1 [4, 30]: 97.0 ± 2.5%
% Remaining Day 0 [4, 31]: 100 ± 7.1%
% Remaining Day 1 [4, 31]: 89.5 ± 3.8%
% Remaining Day 0 [4, 17]: 100 ± 3.8%
% Remaining Day 1 [4, 17]: 82.3 ± 2.6%
% Remaining Day 0 [4, 18]: 100 ± 3.8%
% Remaining Day 1 [4, 18]: 81.0 ± 3.0%
IC50 [7, 32]: 4820 nM

IC50 [2, 29]: 12 nM
% w/w drug(s) @ 24 hr [8]: 63.4 ± 35.4 % w/w
Initial drug level in water [8]: 6.53 ± 0.31 mg/mL
Drug level @ 24 hrs in water ([8]; ambient temperature): 4110 ± 2260 µg/mL
% Remaining Day 0 [4, 11]: 100 ± 9.3%
% Remaining Day 1 [4, 11]: 34.3 ± 3.1%
% Remaining Day 0 [4, 12]: 100 ± 8.3%
% Remaining Day 1 [4, 12]: 89.7 ± 5.2%
% Remaining Day 0 [4, 15]: 100 ± 12.6%
% Remaining Day 1 [4, 15]: 27.0 ± 2.9%
% Remaining Day 0 [4, 16]: 100 ± 6.2%
% Remaining Day 1 [4, 16]: 90.7 ± 5.1%
% Remaining Day 0 [4, 30]: 100 ± 9.4%
% Remaining Day 1 [4, 30]: 66.8 ± 4.1%
% Remaining Day 0 [4, 31]: 100 ± 6.3%
% Remaining Day 1 [4, 31]: 93.2 ± 4.9%
% Remaining Day 0 [4, 17]: 100 ± 4.7%
% Remaining Day 1 [4, 17]: 99.3 ± 2.2%
% Remaining Day 0 [4, 18]: 100 ± 3.6%
% Remaining Day 1 [4, 18]: 87.9 ± 2.7%
drug loaded [5, 20]: 0.38 ± 0.12 mg/mL
drug loaded [5, 21]: 0.01 ± 0.001 mg/mL
drug loaded ([5]; polymer 10 mg/ml, PTX + GSP micelles): 0.87 ± 0.09 mg/mL
drug loaded [5, 22]: 0.014 ± 0.002 mg/mL
drug loaded [5, 23]: 0.63 ± 0.14 mg/mL
drug loaded ([5]; polymer 200 mg/ml, PTX + CYP + GSP micelles, listed as PTX): 6.4 mg/mL and 6.41 ± 0.63 mg/mL
drug loaded [5, 27]: 0.01 ± 0.01 mg/mL
drug loaded ([5]; polymer 200 mg/ml, PTX + GSP micelles): 3.49 ± 0.39 mg/mL
IC50 [7, 32]: 8.7 nM
Compound: CC(=O)O[C@H]1C(=O)[C@@]2(C)[C@H]([C@H](OC(=O)c3ccccc3)[C@]3(O)C[C@H](OC(=O)[C@H](O)[C@@H](NC(=O)c4ccccc4)c4ccccc4)C(C)=C1C3(C)C)[C@]1(OC(C)=O)CO[C@@H]1C[C@@H]2O [Paclitaxel, paclitaxel]
IC50 [2, 28]: 13 nM
IC50 (A549 NSCLC Cells; A549, free drugs in DMSO stock, 72 hours, n = 3, mean ± SD, two drug combinations molar ratio 1:1, three drug 5:5:1, read-out: IC50): 616 ± 418 nM
